{
  "source": "patent US11117888B2",
  "about": "“Irreversible inhibitors of pyruvate kinase M2 and the use thereof” (China Medical University, priority 2020, dated 2021)",
  "key": {"PKM2": {"target": "PKM2 (Homo sapiens, UniProt P14618)", "sequence (P14618 whole entry)": "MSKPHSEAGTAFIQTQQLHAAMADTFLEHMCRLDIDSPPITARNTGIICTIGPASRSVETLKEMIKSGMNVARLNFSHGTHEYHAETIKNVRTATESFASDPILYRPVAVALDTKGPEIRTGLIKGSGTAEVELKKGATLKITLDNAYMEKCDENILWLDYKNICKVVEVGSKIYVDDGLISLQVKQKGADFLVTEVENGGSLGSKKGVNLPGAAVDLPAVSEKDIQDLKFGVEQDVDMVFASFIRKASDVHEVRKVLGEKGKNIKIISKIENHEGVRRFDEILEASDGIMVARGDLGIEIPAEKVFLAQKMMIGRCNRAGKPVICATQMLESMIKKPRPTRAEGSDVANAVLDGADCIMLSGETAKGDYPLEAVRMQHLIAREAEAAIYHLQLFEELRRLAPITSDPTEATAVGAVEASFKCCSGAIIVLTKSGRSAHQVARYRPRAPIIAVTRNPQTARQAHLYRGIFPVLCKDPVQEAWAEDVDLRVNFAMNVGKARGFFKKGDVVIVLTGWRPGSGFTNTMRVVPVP", "assay": "Covalent adduct formation with recombinant PKM2 (anti-compound 1 antibodies, nanoLC-MS/MS site mapping)", "assay_type": "binding", "design": "made in house", "protocol": "As this cell-based kinase assay could not rule out the involvement of PKM1, we examined the abilities of compound 1 to inhibit the kinase activity of recombinant PKM2 (SAE0021, Sigma-Aldrich) versus recombinant PKM1 (SRP0415, Sigma-Aldrich) using a commercial PKM assay kit. […] In brief, PC-9 cells were exposed to different concentrations of compound 2 in the presence of compound 1 (1 μM) for 1 hour, lysed, and the cell lysates were treated with biotin-azide, followed by streptavidin bead pulldown under the aforementioned conditions. […] The antigen of compound 1 was prepared by coupling this small molecule with cysteine residues of ovalbumin, which was then used for immunization in guinea pigs.\nPreparation of anti-compound 1 antiserum. compound 1 was coupled to the cysteine thiolate in ovalbumin (OVA) via the propiolyl moiety under alkaline conditions by using the modifications to a published method. […]\nAs PKM2 has a total of 10 cysteine residues (NCBI reference sequence: NM_002654), we conducted proteomic analysis to identify which cysteine residues were covalently modified by compound 1. […] In general, the modification site assignment was considered reliable if the b and y ions flanking the implicated site could be detected, with mass shifts corresponding to a compound 1-modified cysteine (+516.1773 Da). […]"}, "[1]": {"test_system": "MCF-7 breast cancer cells", "assay": "MTT cell viability assay, MCF-7", "assay_type": "cell-based", "settings": "Homo sapiens, MCF7; MCF-7, MTT, 24 hours", "excerpt": "(§1) Cell lines, cell culture, biochemical reagents, and antibodies. MiaPaCa-2, AsPC-1, and Panc-1 human pancreatic cancer cells, MCF-7 and MDA-MB-231 breast cancer cells, SCC4 and SCC2059 oral cancer cells, PC-3 and LNCaP prostate cancer cells, H157, H460, H1975, PC-9 and H1650 lung cancer cells were obtained from the American Type Culture Collection (ATCC, Manassas, Va.). All these cells were maintained in recommended growth medium (RPMI 1640 or DMEM) supplemented with 10% fetal bovine serum (FBS) (Invitrogen, Carlsbad, Calif., USA) and antibiotics at 37° C. in a humidified incubator containing 5% CO2. For SILAC experiments, PC-9 cells were grown in SILAC DMEM medium (Thermo Fisher) supplemented with 10% dialyzed FBS and 100 μg/mL each of unlabeled L-arginine and L-lysine (light medium) or ^13C/^15N stable isotope-labeled L-arginine and L-lysine (heavy medium). […]\n(§2) Cell viability assays. Drug effects on cell viability was assessed by 3-(4,5-dimethylthiazol-2-yl)-2,5-diphenyltetrazolium bromide ([…]) assays. […] The medium was then removed from each well and replaced with DMSO to dissolve the reduced MTT dye for subsequent colorimetric measurement of absorbance at 560 nm. Cell viabilities are expressed as percentages of viable cells relative to the corresponding vehicle-treated control group."}, "[2]": {"test_system": "PC-3 prostate cancer cells", "assay": "MTT cell viability assay, PC-3", "assay_type": "cell-based", "settings": "Homo sapiens; PC-3, MTT, 24 hours", "excerpt": "as §1, §2"}, "[3]": {"test_system": "ROS production in PC-9 cells", "assay": "ROS assay", "assay_type": "cell-based, human", "settings": "0.25 μM and 0.5 μM, 6 hours", "protocol": "ROS assay. ROS detection was performed by using a fluorescent assay kit from BioVision (Milpitas, Calif., USA) according to the manufacturer's instructions. Briefly, PC-9 cells were seeded into 96-well plate at a cell density of 2×10^4 cells per well. After 24 hours, cells were treated with indicated concentration of compound 1 or DMSO for 6 hours. After treatment, cells were washed in ROS assay buffer and then incubated with 1×ROS label diluted in ROS assay buffer for 45 min at 37° C. in the dark. The ROS label was removed, and the fluorescence at Ex/Em 495/529 nm in end point mode was measured immediately after 100 μl of ROS assay buffer was added to each well."}, "[4]": {"assay": "Incubation with free cysteine, mass spectral analysis", "assay_type": "physicochemical", "settings": "stoichiometric amount of free cysteine in solution", "excerpt": "In an effort to develop irreversible kinase inhibitors, we chose the core structures of several published kinase inhibitors to couple with a propiolyl moiety, which could act as an electrophilic warhead to irreversibly modify the cysteine residues of target proteins."}},
  "data": [
    {"smiles": "C#CC(=O)Nc1ccc(-n2nc(CCC(=O)NC)cc2-c2ccc(-c3ccc(C(F)(F)F)cc3)cc2)cc1", "note": "[compound 1, N-(4-(3-(3-(Methylamino)-3-oxopropyl)-5-(4′-(trifluoromethyl)-[1,1′-biphenyl]-4-yl)-1H-pyrazol-1-yl)phenyl)propiolamide]", "values": [
      {"measurement": "covalent adduct with recombinant PKM2 (anti-compound 1 antibodies)", "setting": "PKM2; Western blot, 4° C. for 6 hours", "value": "antibodies cross reacted with compound 1-treated PKM2"},
      {"measurement": "cysteine residues of PKM2 covalently modified", "setting": "PKM2; tryptic digestion, nanoLC-MS/MS", "value": "covalently coupled to the two cysteine residues Cys317 and Cys326"},
      {"measurement": "IC50", "setting": "[1]", "value": 1000, "unit": "nM"},
      {"measurement": "IC50", "setting": "[2]", "value": 600, "unit": "nM"},
      {"measurement": "ROS level", "setting": "[3]", "value": "reduced the ROS level"},
      {"measurement": "adduct formation with free cysteine", "setting": "[4]", "value": "formation of a covalent 1-cysteine adduct"}
    ]}
  ]
}
